According to patent US8835643B2, “Molecules, compositions, and methods for light absorption” (Empire Technology Development LLC, priority 2012, dated 2014):

Assays:
[1] = Critical wavelength method, evaluation as UVA protector; format: physicochemical
Description: The term “critical wavelength method” denotes a method of measuring of the breadth of UVA protection using the “critical wavelength”. To obtain this value, the absorbance of the molecule or material is integrated (summed) from 290 nm across the UV wavelengths until the sum reaches 90% of the total absorbance of the sunscreen in the UV region of 290-400 nm. The wavelength where the summed absorbance reaches 90% of the total absorbance is the “critical wavelength”. The critical wavelength can be defined by the following equation: […]
The critical wavelength method was then employed for evaluation of the molecule CDBA as a UVA protector. The results are shown in FIGS. 5A-5C, which are graphs depicting the data using the Critical Wavelength method to evaluate CDBA as a UVA protector. […] Its 90% value was 124.030. […] Given this, the λc was determined to be between 389-390 nm. Furthermore, the results can be summarized as follows: • After 6 minutes of irradiation of UVA radiation (356 nm or 357 nm), 100% of the composition was isomeric. • After 8 minutes of irradiation of visible light radiation (442 nm or 443 nm), 99% of the molecules were isomeric. • After 3 hours of daylight irradiation, more than 90% of the molecules were isomeric, trans.

[2] = Molar absorptivity in CHCl3 (UV-Vis spectrophotometer); format: physicochemical; conditions: for κ (molar absorptivity): CHCl3; for λmax (λCHCl3): in CHCl3
Method: The tests included observing the UVA-absorbing condition before and after light exposure and noting the molar absorption coefficient. […] The ultraviolet spectra of CHCl3 were measured using an UV-Vis spectrophotometer (U3010, Hitachi, Japan). All experiments were carried out at room temperature unless otherwise stated.

[3] = Photoisomerization tests under UV, visible and natural light; format: physicochemical; conditions: for time of UV light irradiation to convert trans into cis form / time of visible light irradiation to reach the photostationary state of trans form: 400 W Hg lamp; for time of UV light irradiation to convert trans into cis form: 275-400 nm filter, room temperature; for time of visible light irradiation to reach the photostationary state of trans form: filter >400 nm; for time of natural light irradiation to reach the photostationary state of trans form: fluorescent lamps, about 500 lx
Method: Photoisomerization tests were carried out on compounds PyB (Formula XIV) and iQB (Formula XV), which were synthesized and characterized by MS, IR, ^1H NMR spectra.
The tests included observing the UVA-absorbing condition before and after light exposure and noting the molar absorption coefficient. The test also included determining the photo isomerization conditions under illumination of UVA, visible light and daylight. The compounds were irradiated with a 400 W high-pressure Hg lamp (LCE-9, Zhengzhou, China). A bandpass filter (λT=275˜400 nm) was used for UV light and a bandpass filter (λT>400 nm) was used for visible light. The light distance was 20 cm. For natural light irradiation, samples were irradiated with fluorescent lamps (21 W×2, luminous intensity about 500 lx), and the light distance was 120 cm. The ultraviolet spectra of CHCl3 were measured using an UV-Vis spectrophotometer (U3010, Hitachi, Japan). All experiments were carried out at room temperature unless otherwise stated.
It was estimated from the spectral change that trans-PyB and iQB were converted into the cis-PyB or iQB after 6 or 8 min (respectively) of UV light irradiation (FIGS. 3A and 4A); it took 8 min of visible light irradiation to reach the photostationary state of trans-PyB or iQB (FIGS. 3B and 4B) and 3.0 h of natural light irradiation to reach the photostationary state of trans-PyB or iQB (FIGS. 3C and 4C).

Method for back of the rats: Phototoxicity of various azo-compounds was examined.
The UV source for the in vivo testing involved a 400 W high-pressure mercury lamp (LCE-9, Zhengzhou, China) with a filter transmitting the wavelength between 320-380 nm. Four test sites (4 cm^2) were selected on the back of the rats. The sites were located between the breast and scapulae and lateral to the midline. The test product was applied at the amount of 20 ul/cm^2 (0.06 mg CDBA) and spread uniformly over one test site using a finger cot. The product was allowed to dry for 15 min before starting the UV exposure. On each test site, four squares (1 cm×1 cm) were defined, on an unprotected skin area of the rat dorsal and on a sunscreen-protected area. The skin was kept at a distance of 15 cm from the light source and the time of illumination was 5 hours on the test sites.

Compound	κ (molar absorptivity) ([2]; at 442 nm)	κ (molar absorptivity) ([2]; at λmax)	A (absorbance) ([2]; at λmax, CHCl3, C 0.01 mg/mL)	λmax (λCHCl3) [2]	time of UV light irradiation to convert trans into cis form [3]	time of visible light irradiation to reach the photostationary state of trans form [3]	time of natural light irradiation to reach the photostationary state of trans form [3]	further results
CCN(CC)CCCCOc1ccc(N=Nc2ccc(C(=O)OC3CCC4(C)C(=CCC5C4CCC4(C)C(C(C)CCCC(C)C)CCC54)C3)cc2)cc1 (centres unmarked) [CDBA, 4-cholesterocarbonyl-4′-(N,N-diethylaminebutyloxyl)azobenzene]	3174 L/mol/cm	24726 L/mol/cm	0.335	357 (λmax) nm	–	–	–	integrated area ([1]; 290-389 (FIG. 5C)): 123.707; integrated area ([1]; 290-390 (FIG. 5B)): 125.025; 90% value of integrated area ([1]; 290 nm to 400 nm (FIG. 5A)): 124.030; integrated area ([1]; 290 nm to 400 nm (FIG. 5A)): 137.811; critical wavelength λc ([1]; wavelength where summed absorbance from 290 nm reaches 90% of the 290-400 nm total): 389-390 nm; A (absorbance) ([2]; at 442 nm, CHCl3, C 0.01 mg/mL): 0.043; protection of skin from UV irradiation (back of the rats; rat back, in liposome, 20 ul/cm2 (0.06 mg CDBA), 320-380 nm for 5 h, seen three days after): effectively protected skin from UV irradiation; adverse effect on skin (back of the rats; rat, in vivo): no adverse effect including allergy
COc1ccc(C(=O)CC(=O)c2ccc(C(C)(C)C)cc2)cc1 [avobenzone, reference compound]	–	23870 L/mol/cm	0.770	358 (λmax) nm	–	–	–	κ (molar absorptivity) ([2]; at 320 nm): 10354 L/mol/cm; A (absorbance) ([2]; at 320 nm, CHCl3, C 0.01 mg/mL): 0.334; κ (molar absorptivity) ([2]; at 360 nm): 23715 L/mol/cm; A (absorbance) ([2]; at 360 nm, CHCl3, C 0.01 mg/mL): 0.765; κ (molar absorptivity) ([2]; at 400 nm): 2294 L/mol/cm; A (absorbance) ([2]; at 400 nm, CHCl3, C 0.01 mg/mL): 0.074
CC(C)CCCC(C)C1CCC2C3CC=C4CC(OC(=O)c5ccc(N=Nc6ccc(OCCCC[n+]7ccc8ccccc8c7)cc6)cc5)CCC4(C)C3CCC12C.[Br-] (centres unmarked) [iQB]	–	21176 L/mol/cm	0.242	357 (λmax) nm	8 min	8 min	3.0 h	–
CC(C)CCCC(C)C1CCC2C3CC=C4CC(OC(=O)c5ccc(N=Nc6ccc(OCCCC[n+]7ccccc7)cc6)cc5)CCC4(C)C3CCC12C.[Br-] (centres unmarked) [PyB]	2227 L/mol/cm	14464 L/mol/cm	–	356 (λmax) nm	6 min	8 min	3.0 h	A (absorbance) ([2]; at 442 nm, CHCl3, C 0.03 mg/mL): 0.081; A (absorbance) ([2]; at λmax, CHCl3, C 0.03 mg/mL): 0.526
